Molecules are shown by their SMILES.

The test system of one assay is H358 spheroids. The experiment in a line: Spheroid Western blot assay, H358. The format is cell-based. How it is done:
NSCLC cell lines H358 (catalog #CRL-5807) and H2030 (catalog #CRL-5914), and fibrosarcoma cell line HT-1080 (catalog […]) were obtained from the American Type Culture Collect (ATTC, Manassas, VA). Cells were grown in RPMI-1640 medium supplemented with 10% heat-inactivated fetal bovine serum and 1% Penicillin/Streptomycin/L-Glutamine (Invitrogen, Carlsbad, CA) at 37° C., 5% CO2, and 95% humidity and maintained at 50-80% confluency until use. Cells were plated at 500,000 cells/well in 24-well Elplasia plates (Corning, Glendale, AZ) with complete growth media at 1 mL/well and incubated overnight at 37° C., 5% CO2, and 95% humidity to form spheroids. The next day, serial dilutions of test compounds were prepared in complete growth media and 500 μL existing media was removed from each well and replaced with fresh media containing compound titers. Spheroids were then incubated with test compounds for 4 hours or 24 hours under the same conditions. […] Western blots were performed to quantify phospho-GCN2 (R&D Systems, Minneapolis, MN), ATF4, CHOP, cleaved PARP, cleaved Caspase 3 and 7, and beta-Actin (Cell Signaling Technology, Danvers, MA). […]

The subject of assay [1] is HT-1080 fibrosarcoma xenograft. The experiment in a line: HT-1080 xenograft efficacy model. The note with it: 10 mg/kg BID, 14 days of dosing. The format is in vivo, mice. As for the experimental part: The HT-1080 xenograft model was performed in compliance with all the laws, regulations and guidelines of the National Institutes of Health (NIH) and with the approval of the Animal Care and Use Committee of Labcorp (Ann Arbor, MI), an AAALAC accredited facility. Food and water were provided ad libitum. […] Female nude mice (6-7 weeks old) were inoculated subcutaneously just below the right high axilla with two million cells in Dulbecco's Phosphate Buffered Saline, using a 27-gauge needle and syringe. When tumor burdens reached 100 mm 3 on average on day 6, mice were randomly assigned into groups such that the mean tumor burden for all groups was within 10% of the overall mean tumor burden for the study population. […] Tumor volume and body weight were measured three time per week. Tumor burden (mg) was estimated from caliper measurements by the formula: tumor burden (mg=mm 3)=(length×width 2)/2.

The subject of assay [2] is ATF4 levels in HT-1080 fibrosarcoma xenograft. In words: HT-1080 fibrosarcoma xenograft PK/PD model. The assay is classed as in vivo, mice. How it is done: The HT-1080 xenograft model was performed in compliance with all the laws, regulations and guidelines of the National Institutes of Health (NIH) and with the approval of the Animal Care and Use Committee of Labcorp (Ann Arbor, MI), an AAALAC accredited facility. Food and water were provided ad libitum. […] Female nude mice (6-7 weeks old) were inoculated subcutaneously just below the right high axilla with two million cells in Dulbecco's Phosphate Buffered Saline, using a 27-gauge needle and syringe. When tumor burdens reached 150 mm 3 on average on day 6, mice were randomly assigned into groups such that the mean tumor burden for all groups was within 10% of the overall mean tumor burden for the study population. Groups were treated on days 6-11 as follows: vehicle control (dosed orally) (n=9); Compound 2 dosed orally at 10 mg/kg BID (n=9); Compound 2 dosed orally at 5 mg/kg BID; Compound 2 dosed orally at 1 mg/kg BID (n=9) prior to sample harvest at 2, 6 and 10 h post dose on day 11. Blood samples were collected in K2EDTA tubes and processed into plasma, snap frozen in liquid nitrogen then stored at −80° C. Plasma samples were subjected to pharmacokinetic analysis using liquid chromatography coupled with tandem mass spectrometry analysis (Cayman Chemical, Ann Arbor, MI). Tumors were harvested and powdered over liquid nitrogen in covaris bags and stored at −80° C. For tissue sample processing roughly 30 mg of tumor tissue was lysed in MPER lysis buffer (Thermo Fisher Scientific, Waltham, MA) supplemented with 3× Halt protease inhibitor, 3×Halt phosphatase inhibitor, 3× Sigma phosphatase inhibitor cocktail 2 and 3×EDTA on ice then homogenized using Bead Ruptor 96 (Omni, Kennesaw, GA). […] Protein concentrations were determined using BCA protein assay kit (Thermo Fisher Scientific, Waltham, MA). […] Samples were resolved using SDS-PAGE then analyzed using Western blot to quantify ATF4 and beta-Actin (Cell Signaling Technology, Danvers, MA). […] Data was analyzed using GraphPad Prism software (GraphPad, San Diego, CA) to calculate % inhibition.

`Cn1cc(-c2cccc(NS(=O)(=O)c3cc(Cl)cc(CO)c3Cl)c2F)c2c(N)ncnc21` [Example 2, N-(3-(4-amino-7-methyl-7H-pyrrolo[2,3-d]pyrimidin-5-yl)-2-fluorophenyl)-2,5-dichloro-3-(hydroxymethyl)benzenesulfonamide]: the “upregulation of ATF4 (Western blot quantification)” value in the assay with H358 spheroids is at most 12 fold. The “mean tumor growth inhibition” value in assay [1] is 50%. For the same compound, the results for the “upregulation of ATF4 levels compared to vehicle control” value in assay [2] (1 mg/kg BID orally), in assay [2] (5 mg/kg BID orally) and in assay [2] (10 mg/kg BID orally) were 3 fold, 3.5 fold and 4.5 fold, respectively.

Source of the values: US20230382915A1, “GCN2 AND PERK KINASE INHIBITORS AND METHODS OF USE THEREOF” (Deciphera Pharmaceuticals, LLC, priority 2021, published 2023).
